The numbers were not newly measured in article PMC9494641 (ACS Omega, 2022), which cites them from elsewhere.

The IC50 is the concentration that inhibits the measured activity by half. As a reminder, the Kd is the free concentration of one partner at which half of the binding sites on the other are occupied at equilibrium, for simple one-to-one binding.

Data set [1] relates to JAK2 expressing SET-2 cell line.
For another data set, the target named is JAK2 (Homo sapiens, UniProt O60674). Conditions: read-out: Kd JAK2.
The next data set has as its system JAK1. Conditions: read-out: IC50 JAK1.

Chain of JAK2 (O60674 808-1132 limits assumed): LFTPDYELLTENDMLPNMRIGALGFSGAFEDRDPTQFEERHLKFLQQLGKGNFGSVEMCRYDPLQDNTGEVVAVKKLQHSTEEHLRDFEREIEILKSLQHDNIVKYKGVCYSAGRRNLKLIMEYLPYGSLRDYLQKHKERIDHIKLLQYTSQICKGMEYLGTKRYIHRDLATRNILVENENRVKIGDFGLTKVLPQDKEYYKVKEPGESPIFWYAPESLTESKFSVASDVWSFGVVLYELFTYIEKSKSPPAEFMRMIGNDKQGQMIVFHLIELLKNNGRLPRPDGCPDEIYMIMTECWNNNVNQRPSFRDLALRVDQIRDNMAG

On to `Cc1cc(Nc2nc(N[C@@H](C)c3ccc(F)cc3)c(C#N)cc2F)[nH]n1` [AZ960], for which the IC50 in data set [1] was under 3 nM.

For `CCN(CC)CCC(CNc1ccnc2cc(Cl)ccc12)c1ccc(O)cc1` (stereo not drawn) [NSC13626], the equilibrium dissociation constant (Kd) on JAK2 is 6600 nM.

As for `N#CC[C@H](C1CCCC1)n1cc(-c2ncnc3[nH]ccc23)cn1` [Ruxolitinib], the IC50 in the data set with JAK1 is […].
